Positions count from the first letter of the chain named.
Legend:
Assay in all cases: E. coli hemG growth inhibition by herbicide, AtPPO1 variant
Format in all cases: cell-based
Settings in all cases: read-out: percentage growth inhibition
AtPPO1 E111F = target: T1, AtPPO1 E111F (Arabidopsis thaliana, UniProt P55826, E111F)
T1 construct: expressed in transfected cells; host or cells: E. coli BL21(DE3) hemG (hemG replaced by CmR), pET24a plasmid
T1 sequence (P55826 35-537 E111F): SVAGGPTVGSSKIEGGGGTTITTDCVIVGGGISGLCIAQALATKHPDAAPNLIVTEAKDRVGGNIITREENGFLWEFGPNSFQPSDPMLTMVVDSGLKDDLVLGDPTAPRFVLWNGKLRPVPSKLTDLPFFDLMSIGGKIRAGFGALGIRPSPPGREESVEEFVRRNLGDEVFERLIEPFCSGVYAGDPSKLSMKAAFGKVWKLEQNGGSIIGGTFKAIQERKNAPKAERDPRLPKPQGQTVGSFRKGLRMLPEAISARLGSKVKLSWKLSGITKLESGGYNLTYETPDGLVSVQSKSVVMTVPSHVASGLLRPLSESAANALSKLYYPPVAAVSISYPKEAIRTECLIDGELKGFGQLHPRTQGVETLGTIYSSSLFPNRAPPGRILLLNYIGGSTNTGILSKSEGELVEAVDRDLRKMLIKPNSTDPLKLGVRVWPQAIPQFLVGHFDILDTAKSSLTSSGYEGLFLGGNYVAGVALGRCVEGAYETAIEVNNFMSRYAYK
From the text: (§1) A pET24a plasmid containing a DNA sequence encoding a variant of PPO1 derived from Arabidopsis thaliana (AtPPO1), codon-optimised for expression in E. coli and under control of a T7 promoter, was synthesised by Twist Bioscience (SEQ ID NO:3). This plasmid was used as the basis of a Site Saturation Variant Library (SSVL) that substituted the codons at 352 amino acid positions for codons that encoded one of the other 19 amino acids, or removed the codon altogether, resulting in a translation product with a deletion at that position.
(§2) The SSVL was batch-transformed by electroporation into an E. coli BL21(DE3) hemG strain with the hemG gene replaced by CmR conferring resistance to chloramphenicol and spread onto LA supplemented with 50 μg/mL kanamycin, 25 μg/mL chloramphenicol and 20 μg/mL hematin. Each batch consisted of all the plasmids that contained variants at two sites.
(§3) Colonies from batch transformations were inoculated into 500 μL of Terrific broth supplemented with 50 μg/mL kanamycin, 25 μg/mL chloramphenicol and 20 μg/mL hematin in 96-deepwell blocks. Cultures were grown for 24 hours at 37° C. with shaking at 250 rpm.
(§4) Overnight cultures were centrifuged and the cell pellets resuspended with 500 μL of Terrific broth. The resuspended cultures were used at a ratio of 1:100 to inoculate a fresh 96-deepwell block containing 500 μL of Terrific broth supplemented with 0.1 mM IPTG, 50 μg/mL kanamycin, 25 μg/mL chloramphenicol and 6.25 ppm of herbicide […] or E or 0.78 ppm herbicide B or DMSO. Assay cultures were grown for 24 hours at 37° C. with shaking at 250 rpm with the OD600 being measured at 24 hours post inoculation. Strains that grew in both DMSO and herbicide were determined to be herbicide tolerant with the percentage of growth inhibition being calculated as below: […]

AtPPO1 K270M = target: T2, AtPPO1 K270M (Arabidopsis thaliana, UniProt P55826, K270M)
T2 construct: expressed in transfected cells; host or cells: E. coli BL21(DE3) hemG, pET24a plasmid
T2 sequence (P55826 35-537 K270M): T1 sequence (P55826 35-537 E111F) with F77E, K236M
From the text: as §1, §2, §3, §4

AtPPO1 S305L = target: T3, AtPPO1 S305L (Arabidopsis thaliana, UniProt P55826, S305L)
T3 construct: expressed in transfected cells; host or cells: E. coli BL21(DE3) hemG (pET24a, T7 promoter)
T3 sequence (P55826 35-537 S305L): T1 sequence (P55826 35-537 E111F) with F77E, S271L
From the text: as §1, §2, §3, §4

AtPPO1 V511L = target: T4, AtPPO1 V511L (Arabidopsis thaliana, UniProt P55826, V511L)
T4 construct: expressed in transfected cells; host or cells: E. coli BL21(DE3) hemG, pET24a plasmid
T4 sequence (P55826 35-537 V511L): T1 sequence (P55826 35-537 E111F) with F77E, V477L
From the text: as §1, §2, §3, §4

Row | SMILES | inhibition at 6.25 ppm (AtPPO1 E111F) | inhibition at 6.25 ppm (AtPPO1 K270M) | inhibition at 6.25 ppm (AtPPO1 S305L) | inhibition at 6.25 ppm (AtPPO1 V511L) | inhibition at 0.78 ppm (AtPPO1 E111F) | inhibition at 0.78 ppm (AtPPO1 K270M) | inhibition at 0.78 ppm (AtPPO1 S305L) | inhibition at 0.78 ppm (AtPPO1 V511L)
1 | CCOC(=O)[C@]1(C)CC(c2cc(-n3c(=O)n(C)c(=S)n(C)c3=O)c(F)cc2Cl)=NO1 [Herbicide D, ethyl (5S)-3-[2-chloro-5-(3,5-dimethyl-2,6-dioxo-4-thioxo-1,3,5-triazinan-1-yl)-4-fluoro-phenyl]-5-methyl-4H-isoxazole-5-carboxylate] | 29% | 23% | 14% | 18% | – | – | – | –
2 | C#CCN1C(=O)C(F)(F)Oc2cc(F)c(-n3c(=O)n(C)c(=S)n(C)c3=O)cc21 [Herbicide B, trifludimoxazin] | – | – | – | – | 27% | 28% | 26% | 18%
3 | CC(C)N(C)S(=O)(=O)NC(=O)c1cc(-n2c(=O)cc(C(F)(F)F)n(C)c2=O)c(F)cc1Cl [Herbicide E, saflufenacil] | 66% | 29% | 39% | 46% | – | – | – | –
